Data reported in PubChem BioAssay (NCI).
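Assay format: 96-well plates, 48-hour exposure. TGI is the concentration that stops growth completely.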

Experiments:
Test in all cases: NCI-60 cell line screen, 48 h
OVCAR-5 ovarian = system: OVCAR-5 ovarian
K-562 leukemia = system: K-562 leukemia
XF 498 CNS = system: XF 498 CNS
NCI-H460 lung = system: NCI-H460 lung
OVCAR-3 ovarian = system: OVCAR-3 ovarian
RXF 393 renal = system: RXF 393 renal
UACC-257 melanoma = system: UACC-257 melanoma
HL-60(TB) leukemia = system: HL-60(TB) leukemia
SW-620 colon = system: SW-620 colon
M19-MEL melanoma = system: M19-MEL melanoma
TK-10 renal = system: TK-10 renal
NCI-H226 lung = system: NCI-H226 lung
HOP-62 NSCLC = system: HOP-62 NSCLC
SNB-78 CNS = system: SNB-78 CNS
SF-295 CNS = system: SF-295 CNS
SK-MEL-2 melanoma = system: SK-MEL-2 melanoma
NCI-H23 lung = system: NCI-H23 lung
SN12C renal = system: SN12C renal
DLD-1 colon = system: DLD-1 colon
KM20L2 colon = system: KM20L2 colon
CAKI-1 renal = system: CAKI-1 renal
COLO 205 colon = system: COLO 205 colon
SK-MEL-5 melanoma = system: SK-MEL-5 melanoma
KM12 colon = system: KM12 colon
MALME-3M melanoma = system: MALME-3M melanoma
DMS 114 small cell lung = system: DMS 114 small cell lung
HCT-15 colon = system: HCT-15 colon
786-0 renal = system: 786-0 renal
HOP-92 NSCLC = system: HOP-92 NSCLC
HCT-116 colon = system: HCT-116 colon
SK-OV-3 ovarian = system: SK-OV-3 ovarian
UO-31 renal = system: UO-31 renal
A549 NSCLC = system: A549 NSCLC
EKVX NSCLC = system: EKVX NSCLC
SF-539 CNS = system: SF-539 CNS
LOX IMVI melanoma = system: LOX IMVI melanoma
DMS 273 small cell lung = system: DMS 273 small cell lung
SF-268 CNS = system: SF-268 CNS
HCC-2998 colon = system: HCC-2998 colon
LXFL 529 NSCLC = system: LXFL 529 NSCLC
IGROV1 ovarian = system: IGROV1 ovarian
MOLT-4 leukemia = system: MOLT-4 leukemia
OVCAR-8 ovarian = system: OVCAR-8 ovarian
UACC-62 melanoma = system: UACC-62 melanoma
ACHN renal = system: ACHN renal
SK-MEL-28 melanoma = system: SK-MEL-28 melanoma
NCI-H522 lung = system: NCI-H522 lung
HT29 colon = system: HT29 colon
M14 melanoma = system: M14 melanoma
HOP-18 NSCLC = system: HOP-18 NSCLC
OVCAR-4 ovarian = system: OVCAR-4 ovarian
CCRF-CEM leukemia = system: CCRF-CEM leukemia
SNB-19 CNS = system: SNB-19 CNS
RPMI-8226 leukemia = system: RPMI-8226 leukemia
RXF-631 renal = system: RXF-631 renal
SNB-75 CNS = system: SNB-75 CNS
A498 renal = system: A498 renal
U251 CNS = system: U251 CNS
SR leukemia = system: SR leukemia

Measured: TGI

CC(=O)Nc1ccccc1S(=O)(=O)c1ccccc1
5.65 µM: OVCAR-5 ovarian
> 100 µM: K-562 leukemia | XF 498 CNS | NCI-H460 lung | OVCAR-3 ovarian | RXF 393 renal | UACC-257 melanoma | HL-60(TB) leukemia | SW-620 colon | M19-MEL melanoma | TK-10 renal | NCI-H226 lung | HOP-62 NSCLC | SNB-78 CNS | SF-295 CNS | SK-MEL-2 melanoma | NCI-H23 lung | SN12C renal | DLD-1 colon | KM20L2 colon | CAKI-1 renal | COLO 205 colon | SK-MEL-5 melanoma | KM12 colon | MALME-3M melanoma | DMS 114 small cell lung | HCT-15 colon | 786-0 renal | HOP-92 NSCLC | HCT-116 colon | SK-OV-3 ovarian | UO-31 renal | A549 NSCLC | EKVX NSCLC | SF-539 CNS | LOX IMVI melanoma | DMS 273 small cell lung | SF-268 CNS | HCC-2998 colon | LXFL 529 NSCLC | IGROV1 ovarian | MOLT-4 leukemia | OVCAR-8 ovarian | UACC-62 melanoma | ACHN renal | SK-MEL-28 melanoma | NCI-H522 lung | HT29 colon | M14 melanoma | HOP-18 NSCLC | OVCAR-4 ovarian | CCRF-CEM leukemia | SNB-19 CNS | RPMI-8226 leukemia | RXF-631 renal | SNB-75 CNS | A498 renal | U251 CNS

COC(=O)/C(=N\NC(N)=O)C(C(=O)C(=O)Nc1ccccc1C(=O)OC)c1nc2ccc(C(=O)c3ccccc3)cc2[nH]c1=O (stereo not given)
> 100 µM: OVCAR-5 ovarian | K-562 leukemia | XF 498 CNS | NCI-H460 lung | OVCAR-3 ovarian | UACC-257 melanoma | HL-60(TB) leukemia | SW-620 colon | M19-MEL melanoma | TK-10 renal | NCI-H226 lung | HOP-62 NSCLC | SNB-78 CNS | SF-295 CNS | SK-MEL-2 melanoma | NCI-H23 lung | SN12C renal | DLD-1 colon | KM20L2 colon | CAKI-1 renal | SK-MEL-5 melanoma | KM12 colon | MALME-3M melanoma | DMS 114 small cell lung | HCT-15 colon | 786-0 renal | SR leukemia | HOP-92 NSCLC | HCT-116 colon | SK-OV-3 ovarian | UO-31 renal | A549 NSCLC | EKVX NSCLC | SF-539 CNS | LOX IMVI melanoma | DMS 273 small cell lung | SF-268 CNS | HCC-2998 colon | LXFL 529 NSCLC | IGROV1 ovarian | MOLT-4 leukemia | OVCAR-8 ovarian | UACC-62 melanoma | ACHN renal | SK-MEL-28 melanoma | NCI-H522 lung | HT29 colon | M14 melanoma | HOP-18 NSCLC | OVCAR-4 ovarian | CCRF-CEM leukemia | SNB-19 CNS | RPMI-8226 leukemia | RXF-631 renal | SNB-75 CNS | A498 renal | U251 CNS
